# Columns and labels:
# Format in all cases: cell-based
# [1] = system: CD4(+) Foxp3(+) cells (Treg cells); test: Insulin-B-peptide-specific proliferation of Treg cells, CFSE/FACS on spleen cells from drug-administered NOD mice (Example 3); details: FIG. 3B
# Description: (§1) 1-5. Analysis of Insulin-B-Peptide-Specific Cell Proliferation of Treg Cells and Measurement of Cytokine Production To NOD mice (NOD/ShiJcl, CLEA Japan Inc., Tokyo, Japan), which are animals representing a spontaneous model for type I diabetes, was intraperitoneally administered 100 μl of the sample for administration, twice a week between the age of 5 to 10 weeks, which was a period prior to the onset of type I diabetes. The spleen was removed from 13-week-old mice and then spleen cells were prepared and subjected to cell culture. Groups receiving test drugs were the following five groups: 1) a group receiving no drug (i.e., a group receiving physiological saline), 2) a group receiving the insulin-B-peptide-incorporated α-GalCer-liposome, 3) a group receiving the insulin-B-peptide-incorporated liposome, 4) a group receiving the α-GalCer-liposome, and 5) a group receiving the α-GalCer solution, with N=2 to 3 animals per group. After preparation of spleen cells from the animals of each of the groups, spleen cells were loaded with CFSE (carboxyfluorescein diacetate succinimidyl ester), a dye used in cell proliferation assays, and subjected to reaction, followed by washing the cells to remove the dye, in regular procedures. […] The concentrations of IL-2 and IL-10 in the culture supernatant were also measured.
# [2] = system: IL-2; test: Cytokine production in culture supernatant of spleen cells from drug-administered NOD mice: IL-2; details: spleen cells of dosed NOD mice, cultured four days
# Description: as §1
# [3] = system: IL-10; test: Cytokine production in culture supernatant of spleen cells from drug-administered NOD mice: IL-10; details: spleen cells of dosed NOD mice, cultured four days
# Description: as §1
smiles,measurement,setting,value
"CCCCCCCCCCCCCCCCCCCCCCCCCC(=O)N[C@@H](CO[C@H]1O[C@H](CO)[C@H](O)[C@H](O)[C@H]1O)[C@H](O)[C@H](O)CCCCCCCCCCCCCC [α-GalCer solution, (2S,3S,4R)-1-O-(α-D-galactopyranosyl)-2-hexacosanoylamino-1,3,4-octadecanetriol]",ratio of the percentage of proliferated cells when no antigen was added to the percentage when the insulin B peptide was added,[1],1.04
same,Concentration of IL-2 in culture supernatant,[2],0.9 pg/mL
same,Concentration of IL-10 in culture supernatant,[3],1.3 pg/mL
